Patent publication US20250236589A1, “THERAPEUTIC PHENETHYLAMINE COMPOSITIONS AND METHODS OF USE” (Cybin IRL Limited, priority 2022, published 2025)
Like-named read-outs stand apart in the source and are kept apart here.

Tests used:
[1] = molecular target: Cholecystokinin CCK1 (CCKA) (h) (Homo sapiens (Human), UniProt P32238); experiment: Off-target screen, radioligand displacement at 10 μM; settings: read-out: binding at 10 μM
5-HT2A receptor = 5-HT2A receptor (Homo sapiens (Human), UniProt P28223); experiment: 5-HT2A functional assay, IP1 (IPOne); format: cell-based; settings: for Emax: relative to 5-HT
Method: After incubation, cells were lysed and fluorescence acceptor and donor were added. FRET was measured after 60 min at room temperature using a microplate reader (Envision, Perkin Elmer). TRUPATH assays followed a similar workflow, except that different reagents were used, and LiCl was not included in the samples; the protocol was based on the report by Olsen, R. H. J. et al., cited above.

Neuropeptide Y Y1 (h) = Neuropeptide Y Y1 (h) (Homo sapiens (Human), UniProt P25929); experiment: Off-target screen, radioligand displacement at 10 μM; settings: read-out: binding at 10 μM
Tachykinin NK1 (h) = Tachykinin NK1 (h) (Homo sapiens (Human), UniProt P25103); experiment: as above; settings: read-out: binding at 10 μM
B2 (h) = B2 (h) (Homo sapiens (Human), UniProt P30411); experiment: as above; settings: read-out: binding at 10 μM
δ-opioid (h) = δ-opioid (h) (Homo sapiens (Human), UniProt P41143); experiment: as above; settings: read-out: binding at 10 μM
[2] = molecular target: norepinephrine transporter (h) (Homo sapiens (Human), UniProt P23975); experiment: as above; settings: read-out: binding at 10 μM
Adrenergic β1 (h) = Adrenergic β1 (h) (Homo sapiens (Human), UniProt P08588); experiment: as above; settings: read-out: binding at 10 μM
[3] = molecular target: CXCR2 (Interleukin-8B) (h) (Homo sapiens (Human), UniProt P25025); experiment: as above; settings: read-out: binding at 10 μM
Muscarinic M5 (h) = Muscarinic M5 (h) (Homo sapiens (Human), UniProt P08912); experiment: as above; format: binding; settings: antagonist radioligand
Cannabinoid CB1 (h) = Cannabinoid CB1 (h) (Homo sapiens (Human), UniProt P21554); experiment: as above; format: binding
D5 (h) = D5 (h) (Homo sapiens (Human), UniProt P21918); experiment: as above; settings: read-out: binding at 10 μM
dopamine transporter (h) = dopamine transporter (h) (Homo sapiens (Human), UniProt Q01959); experiment: as above; settings: read-out: binding at 10 μM
κ-opioid (h) = κ-opioid (h) (Homo sapiens (Human), UniProt P41145); experiment: as above; settings: read-out: binding at 10 μM
[4] = tested on: Potassium KV channel (rat cortex); experiment: as above; format: binding
Prostaglandin EP2 (h) = Prostaglandin EP2 (h) (Homo sapiens (Human), UniProt P43116); experiment: as above; settings: read-out: binding at 10 μM
5-HT3 (h) = 5-HT3 (h) (Homo sapiens (Human), UniProt P46098); experiment: as above; settings: antagonist, read-out: binding at 10 μM
[5] = tested on: GABA (non-selective) (rat cortex); experiment: as above; format: binding
Histamine H1 (h) = Histamine H1 (h) (Homo sapiens (Human), UniProt P35367); experiment: as above; format: binding
PPARγ (h) = PPARγ (h) (Homo sapiens (Human), UniProt P37231); experiment: as above; settings: read-out: binding at 10 μM
[6] = tested on: P2X (ATP) (rat urinary bladder); experiment: as above; format: binding
α1 (non-selective) (r) = experiment: as above; format: binding, rat
5-HT5a (h) = 5-HT5a (h) (Homo sapiens (Human), UniProt P47898); experiment: as above; settings: agonist, read-out: binding at 10 μM
[7] = tested on: Na+ channel (site 2) (rat cortex); experiment: as above; format: binding; settings: antagonist radioligand
5-HT2C receptor = 5-HT2C receptor (Homo sapiens (Human), UniProt P28335); experiment: 5-HT2C agonist radioligand binding ([125I]DOI)
Text: 5-HT2 Receptor Activity. […] Drug Test Anal 2012, 4 (7-8), 556-76. Ray, T. S., Psychedelics and the human receptorome. PLoS One 2010, 5 (2), e9019].

Neuropeptide Y Y2 (h) = Neuropeptide Y Y2 (h) (Homo sapiens (Human), UniProt P49146); experiment: Off-target screen, radioligand displacement at 10 μM; settings: read-out: binding at 10 μM
[8] = molecular target: Calcitonin Gene-Related Peptide CGRP1 (h) (Homo sapiens (Human), UniProt Q16602); experiment: as above; settings: read-out: binding at 10 μM
Adenosine A3 (h) = Adenosine A3 (h) (Homo sapiens (Human), UniProt P0DMS8); experiment: as above; settings: read-out: binding at 10 μM
Melatonin MT1 (h) = Melatonin MT1 (h) (Homo sapiens (Human), UniProt P48039); experiment: as above; settings: read-out: binding at 10 μM
[9] = tested on: BB (nonselective) (rat cortex); experiment: as above; format: binding
D2S (h) = D2S (h) (Homo sapiens (Human), UniProt P14416); experiment: as above; settings: read-out: binding at 10 μM
[10] = read-out: inhibition of radioligand bound at 10 μM

Chain of 5-HT2C receptor (P28335 whole entry, looked up): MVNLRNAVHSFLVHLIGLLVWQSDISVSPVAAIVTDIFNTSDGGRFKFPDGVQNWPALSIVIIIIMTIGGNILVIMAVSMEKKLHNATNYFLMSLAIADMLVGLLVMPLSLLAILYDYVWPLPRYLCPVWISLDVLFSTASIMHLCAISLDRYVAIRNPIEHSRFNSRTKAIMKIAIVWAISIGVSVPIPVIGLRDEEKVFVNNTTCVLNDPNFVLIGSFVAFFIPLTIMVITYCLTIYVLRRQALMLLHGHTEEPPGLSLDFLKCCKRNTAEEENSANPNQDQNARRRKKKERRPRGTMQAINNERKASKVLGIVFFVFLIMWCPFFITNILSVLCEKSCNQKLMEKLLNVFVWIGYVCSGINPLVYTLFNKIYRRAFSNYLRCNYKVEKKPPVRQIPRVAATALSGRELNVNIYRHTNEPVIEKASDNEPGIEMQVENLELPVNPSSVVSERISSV
Chain of Histamine H1 (h) (P35367 whole entry, looked up): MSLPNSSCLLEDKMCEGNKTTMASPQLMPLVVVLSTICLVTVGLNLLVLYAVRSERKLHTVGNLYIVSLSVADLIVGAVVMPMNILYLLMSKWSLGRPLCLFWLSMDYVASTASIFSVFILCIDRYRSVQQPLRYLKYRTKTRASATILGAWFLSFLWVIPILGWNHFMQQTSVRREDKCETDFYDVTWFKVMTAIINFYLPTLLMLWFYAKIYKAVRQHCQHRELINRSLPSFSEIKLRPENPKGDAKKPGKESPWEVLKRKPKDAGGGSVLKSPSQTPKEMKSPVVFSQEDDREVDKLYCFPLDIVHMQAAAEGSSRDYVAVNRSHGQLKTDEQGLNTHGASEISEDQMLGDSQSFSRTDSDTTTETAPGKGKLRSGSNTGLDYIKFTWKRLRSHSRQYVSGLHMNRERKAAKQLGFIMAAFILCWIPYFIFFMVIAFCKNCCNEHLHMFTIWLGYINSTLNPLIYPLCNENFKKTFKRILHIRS
Chain of Neuropeptide Y Y2 (h) (P49146 whole entry, looked up): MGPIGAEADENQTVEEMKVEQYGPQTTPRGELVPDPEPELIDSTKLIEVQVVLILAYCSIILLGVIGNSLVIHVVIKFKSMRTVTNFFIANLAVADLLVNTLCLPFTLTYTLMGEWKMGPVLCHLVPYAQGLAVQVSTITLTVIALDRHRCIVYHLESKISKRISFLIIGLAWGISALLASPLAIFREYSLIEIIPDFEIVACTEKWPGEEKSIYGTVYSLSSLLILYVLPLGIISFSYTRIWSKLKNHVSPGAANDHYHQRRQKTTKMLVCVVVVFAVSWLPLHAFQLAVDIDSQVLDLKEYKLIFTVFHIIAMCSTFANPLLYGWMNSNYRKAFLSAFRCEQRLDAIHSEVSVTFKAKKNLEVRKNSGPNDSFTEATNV
Chain of D2S (h) (P14416 whole entry, looked up): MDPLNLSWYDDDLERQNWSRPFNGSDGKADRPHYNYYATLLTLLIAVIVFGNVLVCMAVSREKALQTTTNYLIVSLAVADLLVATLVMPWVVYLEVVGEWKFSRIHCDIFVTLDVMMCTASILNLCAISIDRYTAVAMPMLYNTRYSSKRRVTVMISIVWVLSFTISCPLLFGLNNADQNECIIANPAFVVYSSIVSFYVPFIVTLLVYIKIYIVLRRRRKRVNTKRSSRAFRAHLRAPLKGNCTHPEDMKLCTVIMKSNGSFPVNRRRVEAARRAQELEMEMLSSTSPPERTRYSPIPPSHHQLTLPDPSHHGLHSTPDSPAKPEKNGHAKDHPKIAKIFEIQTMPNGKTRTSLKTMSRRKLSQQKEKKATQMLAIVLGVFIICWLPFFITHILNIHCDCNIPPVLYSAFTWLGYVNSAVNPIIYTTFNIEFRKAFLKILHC
Chain of D5 (h) (P21918 whole entry, looked up): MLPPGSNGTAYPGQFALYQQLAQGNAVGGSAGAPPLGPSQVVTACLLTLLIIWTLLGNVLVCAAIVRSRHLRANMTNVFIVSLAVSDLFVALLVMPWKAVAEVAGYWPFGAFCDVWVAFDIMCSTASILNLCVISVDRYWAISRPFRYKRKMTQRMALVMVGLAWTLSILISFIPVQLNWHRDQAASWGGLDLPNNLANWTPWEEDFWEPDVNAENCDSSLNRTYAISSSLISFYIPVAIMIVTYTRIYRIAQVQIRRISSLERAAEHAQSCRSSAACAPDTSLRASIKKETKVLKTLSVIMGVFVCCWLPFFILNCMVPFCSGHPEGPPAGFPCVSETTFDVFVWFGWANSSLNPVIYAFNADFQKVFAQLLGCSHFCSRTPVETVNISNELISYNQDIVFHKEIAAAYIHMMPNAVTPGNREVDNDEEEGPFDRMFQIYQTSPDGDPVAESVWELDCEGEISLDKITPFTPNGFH
Chain of Tachykinin NK1 (h) (P25103 whole entry, looked up): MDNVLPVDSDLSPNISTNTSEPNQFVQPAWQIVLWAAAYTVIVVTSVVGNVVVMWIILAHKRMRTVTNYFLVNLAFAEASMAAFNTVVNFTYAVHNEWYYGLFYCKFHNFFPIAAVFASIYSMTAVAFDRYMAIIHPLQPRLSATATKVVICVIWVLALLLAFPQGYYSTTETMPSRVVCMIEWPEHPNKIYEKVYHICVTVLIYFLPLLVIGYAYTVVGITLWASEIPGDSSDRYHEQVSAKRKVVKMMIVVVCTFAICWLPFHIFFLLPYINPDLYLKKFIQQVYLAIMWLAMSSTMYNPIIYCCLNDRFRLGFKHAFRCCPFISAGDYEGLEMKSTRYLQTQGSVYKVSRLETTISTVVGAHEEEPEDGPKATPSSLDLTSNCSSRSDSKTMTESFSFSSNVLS
Chain of CXCR2 (Interleukin-8B) (h) (P25025 whole entry, looked up): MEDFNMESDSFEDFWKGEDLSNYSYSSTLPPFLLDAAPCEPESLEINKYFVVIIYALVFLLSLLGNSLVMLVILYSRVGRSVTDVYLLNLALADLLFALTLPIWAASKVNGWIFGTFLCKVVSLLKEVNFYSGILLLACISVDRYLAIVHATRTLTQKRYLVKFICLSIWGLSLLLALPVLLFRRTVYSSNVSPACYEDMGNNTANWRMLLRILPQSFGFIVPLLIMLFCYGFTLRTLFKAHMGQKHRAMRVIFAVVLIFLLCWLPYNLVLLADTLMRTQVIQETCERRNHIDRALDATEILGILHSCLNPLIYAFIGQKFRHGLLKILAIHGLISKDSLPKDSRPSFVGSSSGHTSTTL
Chain of δ-opioid (h) (P41143 whole entry, looked up): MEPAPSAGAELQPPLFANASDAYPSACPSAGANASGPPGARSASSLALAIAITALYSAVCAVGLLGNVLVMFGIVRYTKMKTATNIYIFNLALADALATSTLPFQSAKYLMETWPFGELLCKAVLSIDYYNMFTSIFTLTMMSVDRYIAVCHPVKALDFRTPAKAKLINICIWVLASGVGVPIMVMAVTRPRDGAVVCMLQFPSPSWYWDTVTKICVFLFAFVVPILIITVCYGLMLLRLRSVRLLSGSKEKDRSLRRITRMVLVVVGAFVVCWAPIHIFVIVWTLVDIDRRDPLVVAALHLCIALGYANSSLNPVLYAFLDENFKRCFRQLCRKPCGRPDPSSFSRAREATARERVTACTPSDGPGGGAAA
Chain of PPARγ (h) (P37231 whole entry, looked up): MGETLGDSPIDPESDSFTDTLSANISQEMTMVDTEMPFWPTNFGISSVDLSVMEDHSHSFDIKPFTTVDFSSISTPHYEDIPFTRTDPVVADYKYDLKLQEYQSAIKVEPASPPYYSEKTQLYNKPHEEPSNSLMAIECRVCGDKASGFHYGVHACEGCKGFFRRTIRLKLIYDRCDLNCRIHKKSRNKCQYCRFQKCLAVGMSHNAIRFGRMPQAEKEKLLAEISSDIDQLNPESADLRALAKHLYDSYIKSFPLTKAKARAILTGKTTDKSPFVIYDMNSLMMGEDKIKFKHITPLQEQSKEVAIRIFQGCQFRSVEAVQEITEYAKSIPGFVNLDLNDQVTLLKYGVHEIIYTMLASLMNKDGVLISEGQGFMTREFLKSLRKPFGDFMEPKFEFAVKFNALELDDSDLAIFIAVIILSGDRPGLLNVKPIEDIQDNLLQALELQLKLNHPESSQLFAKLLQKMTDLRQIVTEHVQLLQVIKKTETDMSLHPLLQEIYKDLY
Chain of 5-HT5a (h) (P47898 whole entry, looked up): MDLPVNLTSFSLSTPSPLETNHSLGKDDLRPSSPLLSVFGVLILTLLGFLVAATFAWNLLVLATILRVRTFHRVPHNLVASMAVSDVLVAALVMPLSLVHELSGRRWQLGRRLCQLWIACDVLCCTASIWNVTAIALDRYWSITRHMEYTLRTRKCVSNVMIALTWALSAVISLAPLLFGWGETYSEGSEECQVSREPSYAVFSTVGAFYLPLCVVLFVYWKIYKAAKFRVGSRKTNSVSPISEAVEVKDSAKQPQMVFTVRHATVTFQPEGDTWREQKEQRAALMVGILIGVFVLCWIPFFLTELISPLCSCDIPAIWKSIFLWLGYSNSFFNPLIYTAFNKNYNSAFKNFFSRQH
Chain of Neuropeptide Y Y1 (h) (P25929 whole entry, looked up): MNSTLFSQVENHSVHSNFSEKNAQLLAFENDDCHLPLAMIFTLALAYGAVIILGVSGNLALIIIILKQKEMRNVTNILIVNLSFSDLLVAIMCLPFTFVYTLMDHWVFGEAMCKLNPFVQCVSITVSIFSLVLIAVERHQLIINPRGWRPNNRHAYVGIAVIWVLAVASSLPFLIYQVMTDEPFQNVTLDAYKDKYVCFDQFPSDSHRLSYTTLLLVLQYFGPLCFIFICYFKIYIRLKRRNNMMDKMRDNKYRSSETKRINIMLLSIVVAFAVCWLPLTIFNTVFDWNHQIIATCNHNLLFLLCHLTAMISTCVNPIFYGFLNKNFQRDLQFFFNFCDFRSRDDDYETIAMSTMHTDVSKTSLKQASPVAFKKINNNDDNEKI

Row | SMILES | inhibition at 10 µM [1] | Emax (5-HT2A receptor; IP1 assay) | inhibition at 10 µM (Neuropeptide Y Y1 (h)) | inhibition at 10 µM (Tachykinin NK1 (h)) | inhibition at 10 µM (B2 (h)) | inhibition at 10 µM (δ-opioid (h)) | inhibition at 10 µM [2] | inhibition at 10 µM (Adrenergic β1 (h)) | inhibition at 10 µM [3] | inhibition at 10 µM (Muscarinic M5 (h)) | inhibition at 10 µM (Cannabinoid CB1 (h); read-out: binding at 10 μM) | inhibition at 10 µM (Cannabinoid CB1 (h); [10]) | inhibition at 10 µM (D5 (h)) | inhibition at 10 µM (dopamine transporter (h)) | inhibition at 10 µM (κ-opioid (h)) | binding at 10 μM [4] | inhibition at 10 µM (Prostaglandin EP2 (h)) | inhibition at 10 µM (5-HT3 (h)) | binding at 10 μM [5] | inhibition at 10 µM (PPARγ (h)) | also measured
1 | COc1cc(SC(F)(F)F)c(OC)cc1CCN [Compound I-1, 2-(2,5-dimethoxy-4-((trifluoromethyl)thio)phenyl)ethan-1-amine] | < 50% | ~86% | < 50% | < 50% | < 50% | < 50% | < 50% | < 50% | < 50% | > 80% | < 50% | < 50% | < 50% | < 50% | < 50% | NB (inhibited less than 50% of radioligand bound to them, and therefore it can be concluded they do not bind (“no binding,” NB)) | < 50% | < 50% | NB (inhibited less than 50% of radioligand bound to them, and therefore it can be concluded they do not bind (“no binding,” NB)) | < 50% | 5-HT2AR agonist activity (in words) (5-HT2A receptor): pronounced agonists; EC50 (5-HT2A receptor): 4100 pM; activation selectivity for 5-HT2A over 5-HT2B (5-HT2A receptor; EC50, IP1): ~21 fold; 2A/2B EC50 Selectivity (5-HT2A receptor; IP1 assay): 21.5; inhibition at 10 µM (Histamine H1 (h); read-out: binding at 10 μM): < 50%; binding at 10 μM [6]: NB (inhibited less than 50% of radioligand bound to them, and therefore it can be concluded they do not bind (“no binding,” NB)); binding at 10 μM (α1 (non-selective) (r)): NB (inhibited less than 50% of radioligand bound to them, and therefore it can be concluded they do not bind (“no binding,” NB)); inhibition at 10 µM (5-HT5a (h)): < 50%; inhibition at 10 µM [7]: 68.4% inhibition at 10 μM; inhibition at 10 µM (5-HT2C receptor): > 80%; binding selectivity for 5-HT2C over 5-HT2B (5-HT2C receptor; Ki, [125I]DOI): ~12 fold; Ki (5-HT2C receptor; radioligand [125I](±)DOI, read-out: 5-HT2C, Ki): 550 pM; inhibition at 10 µM (Neuropeptide Y Y2 (h)): < 50%; inhibition at 10 µM [8]: < 50%; inhibition at 10 µM (Adenosine A3 (h)): < 50%; inhibition at 10 µM (Melatonin MT1 (h)): < 50%; binding at 10 μM [9]: NB (inhibited less than 50% of radioligand bound to them, and therefore it can be concluded they do not bind (“no binding,” NB)); inhibition at 10 µM (D2S (h)): < 50%
2 | COc1cc(CC(C)N)c(OC)cc1I (racemic) [DOI, (±)-2,5-dimethoxy-4-iodoamphetamine, reference compound] | < 50% | ~86% | < 50% | < 50% | < 50% | < 50% | < 50% | < 50% | < 50% | 62.6% | < 50% | < 50% | < 50% | < 50% | < 50% | NB (inhibited less than 50% of radioligand bound to them, and therefore it can be concluded they do not bind (“no binding,” NB)) | < 50% | < 50% | NB (inhibited less than 50% of radioligand bound to them, and therefore it can be concluded they do not bind (“no binding,” NB)) | < 50% | inhibition at 10 µM (Histamine H1 (h); antagonist radioligand, read-out: inhibition at 10 μM): 64.6%; binding at 10 μM [6]: NB (inhibited less than 50% of radioligand bound to them, and therefore it can be concluded they do not bind (“no binding,” NB)); binding at 10 μM (α1 (non-selective) (r)): NB (inhibited less than 50% of radioligand bound to them, and therefore it can be concluded they do not bind (“no binding,” NB)); inhibition at 10 µM (5-HT5a (h)): < 50%; inhibition at 10 µM [7]: 53.5% inhibition at 10 μM; Ki (5-HT2C receptor): 480 pM; inhibition at 10 µM (Neuropeptide Y Y2 (h)): < 50%; inhibition at 10 µM [8]: < 50%; inhibition at 10 µM (Adenosine A3 (h)): < 50%; inhibition at 10 µM (Melatonin MT1 (h)): < 50%; binding at 10 μM [9]: NB (inhibited less than 50% of radioligand bound to them, and therefore it can be concluded they do not bind (“no binding,” NB)); inhibition at 10 µM (D2S (h)): < 50%
